Data reported in BindingDB's records for doi:10.1021/ml2001455 (2011).

Assays:
[1] = biological target: T1, Mitogen-activated protein kinase 14 (Homo sapiens, UniProt Q16539); assay: Inhibition of p38alpha in human PBMC assessed as inhibition of LPS-induced TNFalpha production after 16 to 18 hrs by ELISA
[2] = biological target: T1, Mitogen-activated protein kinase 14; assay: Inhibition of p38alpha in human PBMC assessed as inhibition of LPS-induced IL1beta production after 16 to 18 hrs by ELISA
[3] = biological target: T1, Mitogen-activated protein kinase 14; assay: Inhibition of p38alpha kinase using KRELVEPLTPSGEAPNQALLR as substrate for 20 mins by lactate dehydrogenase-coupled spectrophotometric assay

T1 sequence (Q16539 whole entry): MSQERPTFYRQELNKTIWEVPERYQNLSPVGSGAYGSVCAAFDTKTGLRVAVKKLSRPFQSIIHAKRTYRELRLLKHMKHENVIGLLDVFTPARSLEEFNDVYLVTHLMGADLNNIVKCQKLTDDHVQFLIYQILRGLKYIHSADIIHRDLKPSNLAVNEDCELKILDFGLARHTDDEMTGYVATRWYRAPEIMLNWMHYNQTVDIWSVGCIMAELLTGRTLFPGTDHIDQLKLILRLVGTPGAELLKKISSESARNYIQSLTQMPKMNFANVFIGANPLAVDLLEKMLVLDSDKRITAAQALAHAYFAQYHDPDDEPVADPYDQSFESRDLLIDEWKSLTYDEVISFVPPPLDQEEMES

Row | IC50 [1] [µM] | IC50 [2] [µM] | IC50 [3] [µM] | SMILES
1 | > 20 | – | – | COc1ccccc1-c1c(=O)ncn2nc(Sc3ccccc3)ccc12
2 | > 20 | > 20 | > 20 | O=c1ncn2nc(Sc3ccccc3)ccc2c1-c1ccc(Cl)c(Cl)c1
3 | > 20 | – | > 20 | COc1ccc(-c2c(=O)ncn3nc(Sc4ccccc4)ccc23)cc1
